{"source": "patent US20120190703A1", "about": "“SALTS OF 13A-(S)DESOXYTYLOPHORININE, PREPARATION METHODS AND PHARMACEUTICAL COMPOSITIONS AND USES THEREOF” (priority 2009, published 2012)", "key": {"Solubility in water": {"assay": "Solubility in water", "assay_type": "physicochemical"}, "H22 tumor-bearing mice": {"system": "H22 tumor-bearing mice", "conditions": "intragastric once daily", "excerpt": "To determine the pharmacodynamic characters of 13a-(S)-deoxytylophorinine and its salts, the impact of these compounds to the tumor growth in H22 tumor-bearing mice was surveyed.\nMale Kunming mice were obtained from the Laboratory Animal Center, Academy of Military Medical Science. Body weight 18˜22 g. 6 animals per group, totally 10 groups, 60 animals.\n(+)-13a-(S)-deoxytylophorinine, (+)-13a-(S)-deoxytylophorinine Tartrate, (+)-13a-(S)-deoxytylophorinine Maleate, (+)-13a-(S)-deoxytylophorinine Citrate, Cytoxane (CTX) as positive control.\n(+)-13a-(S)-deoxytylophorinine was administered at high dose (5 mg/kg) and low dose (2.5 mg/kg). Three (+)-13a-(S)-deoxytylophorinine salts were administered at high dose and low dose as equal moles with their prototype (Tartrate: 7.05 mg/kg, 3.53 mg/kg; Malate: 6.60 mg/kg, 3.30 mg/kg; Citrate: 7.90 mg/kg, 3.95 mg/kg).\nAnimals were reared in SPF grade circumstance to be observed for 24 h. The tumor cells liquid which resuscitated in abdominal cavity of KM mice was diluted with aseptic normal saline at 1:3 ratio. The resulting liquid was inoculated subcutaneously at forelimb with 0.2 mL every animal. After the injection over, the animals were divided to […] with 6 animals per group.\nFour experimental samples were intragastric administered once daily 24 h after inoculation. The positive control CTX was intraperitoneal injected once daily. The animal body weight was recorded every day."}, "[1]": {"assay": "Plasma pharmacokinetics after oral administration in mice", "method": "To determine the pharmacokinetic characters of 13a-(S)-deoxytylophorinine and its salts, the studies about plasma pharmacokinetics and the character of distribution in brain were pursued.\n(§1) Male ICR mice. Body weight 18˜22 g.\n(+)-13a-(S)-deoxytylophorinine Tartrate, (+)-13a-(S)-deoxytylophorinine Maleate, (+)-13a-(S)-deoxytylophorinine Citrate. All were dissolved in distilled water as 0.6 mg/ml solution before experiment progressed.\n72 mice were divided to 3 groups with 24 animals per group, fasting for 16 h and drinking water freely. […] Plasma was isolated by centrifugalization. After the salts were administered orally, the brain tissues of mice were collected at 5 min, 15 min, 2 h time points. 25% tissue homogenate was prepared with normal saline addition. 200 μL of homogenate and plasma were added isovolumic MeCN to precipitate protein. 5 μL of clear supernatant was analyzed by LC/MS/MS.\n(+)-13a-(S)-deoxytylophorinine was dissolved in DMSO and then diluted with MeOH with concentration 10, 50, 100, 500, 1000 and 2500 ng/ml respectively. 10 μl of standard solutions of (+)-13a-(S)-deoxytylophorinine with different concentration above were added to 200 μl of blank plasma sequently to adjust the concentration to 0.5, 2.5, 5, 25, 50, 125 ng/ml respectively. MeCN was added to the solution to precipitate protein, and 5 μl of result clear supernatant was analyzed with LC/MS/MS. Linear regression was ran with the peak area of (+)-13a-(S)-deoxytylophorinine as ordinate and the concentrations as abscissa."}, "[2]": {"assay": "Drug distribution in brain tissue after oral administration in mice", "assay_type": "in vivo, ICR mice", "conditions": "for Brain contents of (+)-13a-(S)-deoxytylophorinine (ng/ml), Mean ± SD / Brain contents of (+)-13a-(S)-deoxytylophorinine (ng/ml), individual animals 1-3: 6 mg/kg oral", "method": "as §1\nPlasma was isolated by centrifugalization. […] 25% tissue homogenate was prepared with normal saline addition.\nThe drug concentration-time data in brain tissue after administered orally of (+)-13a-(S)-deoxytylophorinine tartrate, maleate and citrate were represented in Table 8˜10 and FIG. 6˜8. […] (+)-13a-(S)-deoxytylophorinine could be detected in 5 min. The peak concentration was reached after 15 min, and the compound still can be detected after 2 h after administration."}, "[3]": {"conditions": "high dose × 7 d, equal moles: prototype 5.0, tartrate 7.05, maleate 6.60, citrate 7.90 mg/kg"}, "[4]": {"conditions": "low dose × 7 d, equal moles: prototype 2.5, tartrate 3.53, maleate 3.30, citrate 3.95 mg/kg"}, "[5]": {"conditions": "6 mg/kg oral, mice, Time (min) 3"}, "[6]": {"conditions": "6 mg/kg oral, mice, Time (min) 6"}, "[7]": {"conditions": "male, ICR, mouse, plasma, po, 6 mg/kg"}}, "note": "Values joined by “and” are separate entries in the source; they are usually repeats but may differ in a detail not shown here. Equal values may be shown once. Read-outs that look alike come from different tables or passages of the source. Marks after values point to notes of the source that are not given here."}
{"smiles": "COc1ccc2c3c(c4cc(OC)c(OC)cc4c2c1)CN1CCC[C@H]1C3.O=C(O)C(O)C(O)C(=O)O", "note": "[Tartrate, (+)-13a-(S)-deoxytylophorinine Tartrate]", "values": [{"measurement": "Solubility in water (words)", "setting": "Solubility in water", "value": "soluble in water"}, {"measurement": "solubility", "setting": "Solubility in water; water", "value": 39, "unit": "mg/mL"}, {"measurement": "Animal No. (Initial/Final)", "setting": "H22 tumor-bearing mice; [3]", "value": "6/6"}, {"measurement": "Body Weight(g) Final", "setting": "H22 tumor-bearing mice; [3]", "value": "13.55 ± 1.87", "unit": "g"}, {"measurement": "Body Weight(g) Initial", "setting": "H22 tumor-bearing mice; [3]", "value": "22.00 ± 1.55", "unit": "g⁻¹"}, {"measurement": "Inhibition (%)", "setting": "H22 tumor-bearing mice; [3]", "value": "80.35** %"}, {"measurement": "Tumor Weight (g, mean ± SD)", "setting": "H22 tumor-bearing mice; [3]", "value": "0.23 ± 0.15", "unit": "g"}, {"measurement": "Animal No. (Initial/Final)", "setting": "H22 tumor-bearing mice; [4]", "value": "6/6"}, {"measurement": "Body Weight(g) Final", "setting": "H22 tumor-bearing mice; [4]", "value": "19.76 ± 2.34", "unit": "g"}, {"measurement": "Body Weight(g) Initial", "setting": "H22 tumor-bearing mice; [4]", "value": "21.50 ± 0.84", "unit": "g⁻¹"}, {"measurement": "Inhibition (%)", "setting": "H22 tumor-bearing mice; [4]", "value": 31.88, "unit": "%"}, {"measurement": "Tumor Weight (g, mean ± SD)", "setting": "H22 tumor-bearing mice; [4]", "value": "0.78 ± 0.48", "unit": "g"}, {"measurement": "Peak concentration in blood", "setting": "[1]; 6 mg/kg oral, mice", "value": "34.2 ± 3.1", "unit": "ng/mL"}, {"measurement": "Time of peak concentration in blood", "setting": "[1]; 6 mg/kg oral, mice", "value": 15, "unit": "min"}, {"measurement": "t½z", "setting": "[1]; 6 mg/kg oral, mice, plasma, non-compartment model", "value": 0.88, "unit": "h"}, {"measurement": "Blood concentration of (+)-13a-(S)-deoxytylophorinine (ng/ml), individual animals 1-3", "setting": "[1]; 6 mg/kg oral, mice, Time (min) 0.08", "value": "18.4 ng/mL and 11.7 ng/mL and 42.0 ng/mL"}, {"measurement": "Blood concentration of (+)-13a-(S)-deoxytylophorinine (ng/ml), individual animals 1-3", "setting": "[1]; 6 mg/kg oral, mice, Time (min) 0.25", "value": "30.6 ng/mL and 36.1 ng/mL and 35.7 ng/mL"}, {"measurement": "Blood concentration of (+)-13a-(S)-deoxytylophorinine (ng/ml), individual animals 1-3", "setting": "[1]; 6 mg/kg oral, mice, Time (min) 0.5", "value": "16.5 ng/mL and 9.0 ng/mL and 7.8 ng/mL"}, {"measurement": "Blood concentration of (+)-13a-(S)-deoxytylophorinine (ng/ml), individual animals 1-3", "setting": "[1]; 6 mg/kg oral, mice, Time (min) 1", "value": "6.2 ng/mL and 10.0 ng/mL"}, {"measurement": "Blood concentration of (+)-13a-(S)-deoxytylophorinine (ng/ml), individual animals 1-3", "setting": "[1]; 6 mg/kg oral, mice, Time (min) 2", "value": "2.5 ng/mL and 12.4 ng/mL and 8.7 ng/mL"}, {"measurement": "Blood concentration of (+)-13a-(S)-deoxytylophorinine (ng/ml), Mean ± SD", "setting": "[1]; [5]", "value": "4.5 ± 1.2", "unit": "ng/mL"}, {"measurement": "Blood concentration of (+)-13a-(S)-deoxytylophorinine (ng/ml), individual animals 1-3", "setting": "[1]; [5]", "value": "3.0 ng/mL and 5.0 ng/mL and 5.3 ng/mL"}, {"measurement": "Blood concentration of (+)-13a-(S)-deoxytylophorinine (ng/ml), individual animals 1-3", "setting": "[1]; 6 mg/kg oral, mice, Time (min) 4", "value": "3.3 ng/mL and 4.2 ng/mL and 1.1 ng/mL"}, {"measurement": "Blood concentration of (+)-13a-(S)-deoxytylophorinine (ng/ml), Mean ± SD", "setting": "[1]; [6]", "value": "0.4 ± 0.4", "unit": "ng/mL"}, {"measurement": "Blood concentration of (+)-13a-(S)-deoxytylophorinine (ng/ml), individual animals 1-3", "setting": "[1]; [6]", "value": "0.0 ng/mL and 0.2 ng/mL and 0.8 ng/mL"}, {"measurement": "concentration at 5 min", "setting": "[1]; male, ICR, mouse, plasma, oral, 6 mg/kg, Blood concentration of (+)-13a-(S)-deoxytylophorinine (ng/ml), Mean ± SD, 6 mg/kg oral, mice, Time (min) 0.08", "value": "24 ± 15.9", "unit": "ng/mL"}, {"measurement": "concentration at 15 min", "setting": "[1]; male, ICR, mouse, plasma, oral, 6 mg/kg, Blood concentration of (+)-13a-(S)-deoxytylophorinine (ng/ml), Mean ± SD, 6 mg/kg oral, mice, Time (min) 0.25", "value": "34.2 ± 3.1", "unit": "ng/mL"}, {"measurement": "concentration at 0.5 h", "setting": "[1]; male, ICR, mouse, plasma, oral, 6 mg/kg, Blood concentration of (+)-13a-(S)-deoxytylophorinine (ng/ml), Mean ± SD, 6 mg/kg oral, mice, Time (min) 0.5", "value": "11.1 ± 4.7", "unit": "ng/mL"}, {"measurement": "concentration at 1 h", "setting": "[1]; male, ICR, mouse, plasma, oral, 6 mg/kg, Blood concentration of (+)-13a-(S)-deoxytylophorinine (ng/ml), Mean ± SD, 6 mg/kg oral, mice, Time (min) 1", "value": "8.1 ± 2.7", "unit": "ng/mL"}, {"measurement": "concentration at 2 h", "setting": "[1]; male, ICR, mouse, plasma, oral, 6 mg/kg, Blood concentration of (+)-13a-(S)-deoxytylophorinine (ng/ml), Mean ± SD, 6 mg/kg oral, mice, Time (min) 2", "value": "7.9 ± 5", "unit": "ng/mL"}, {"measurement": "concentration at 4 h", "setting": "[1]; male, ICR, mouse, plasma, oral, 6 mg/kg, Blood concentration of (+)-13a-(S)-deoxytylophorinine (ng/ml), Mean ± SD, 6 mg/kg oral, mice, Time (min) 4", "value": "2.8 ± 1.6", "unit": "ng/mL"}, {"measurement": "AUC(0-inf)", "setting": "[1]; [7]", "value": 37.9, "unit": "ng·h/mL"}, {"measurement": "AUC(0-t)", "setting": "[1]; [7]", "value": 37.4, "unit": "ng·h/mL"}, {"measurement": "Cmax", "setting": "[1]; [7]", "value": 34.2, "unit": "ng/mL"}, {"measurement": "MRT inf", "setting": "[1]; [7]", "value": 1.63, "unit": "h"}, {"measurement": "MRT last", "setting": "[1]; [7]", "value": 1.57, "unit": "h"}, {"measurement": "Tmax", "setting": "[1]; [7]", "value": 0.25, "unit": "h"}, {"measurement": "Brain contents of (+)-13a-(S)-deoxytylophorinine (ng/ml), Mean ± SD", "setting": "[2]; Time (min) 5", "value": "48.0 ± 21.6", "unit": "ng/mL"}, {"measurement": "Brain contents of (+)-13a-(S)-deoxytylophorinine (ng/ml), individual animals 1-3", "setting": "[2]; Time (min) 5", "value": "32.4 ng/mL and 38.8 ng/mL and 72.7 ng/mL"}, {"measurement": "Brain contents of (+)-13a-(S)-deoxytylophorinine (ng/ml), Mean ± SD", "setting": "[2]; Time (min) 15", "value": "262.9 ± 11.9", "unit": "ng/mL"}, {"measurement": "Brain contents of (+)-13a-(S)-deoxytylophorinine (ng/ml), individual animals 1-3", "setting": "[2]; Time (min) 15", "value": "249.3 ng/mL and 271.0 ng/mL and 268.5 ng/mL"}, {"measurement": "Brain contents of (+)-13a-(S)-deoxytylophorinine (ng/ml), Mean ± SD", "setting": "[2]; Time (min) 120", "value": "45.7 ± 33.0", "unit": "ng/mL"}, {"measurement": "Brain contents of (+)-13a-(S)-deoxytylophorinine (ng/ml), individual animals 1-3", "setting": "[2]; Time (min) 120", "value": "24.7 ng/mL and 28.7 ng/mL and 83.7 ng/mL"}, {"measurement": "Drug contents in brain compared with prototype", "setting": "[2]; oral, 3 time points", "value": "higher than their prototype"}]}
